Measured values taken from article doi:10.1101/2021.12.13.472350v1, “An amphipathic and cationic antimicrobial peptide kills colistin resistant Gram-negative pathogens in vivo” (bioRxiv, 2021).
Values after ≈ are worked out from the molar mass of the structure shown. Marks after values point to notes of the source that are not given here. Peptide text beside a SMILES is read from it.

Tests used:
[1] = tested on: Acinetobacter baumannii CR17; settings: CR17, CS01 pmrA::M12K; MHB-II, 37°C, ~5×10^5 CFU/ml, triplicate
[2] = tested on: Pseudomonas aeruginosa Q5
[3] = tested on: Pseudomonas aeruginosa PAO1
[4] = tested on: Acinetobacter baumannii AB167
[5] = tested on: Eschericia coli BW25113 pACYC184; settings: BW25113 with pACYC184; MHB-II, 37°C, ~5×10^5 CFU/ml, triplicate
E. coli ATCC 25922 [6] = assay: In vivo sepsis/peritonitis mouse infection model; settings: NMRI mice infected IP; 10 mg/ml colistin as printed, IP at 1 and 3 h post infection
[7] = tested on: Acinetobacter baumannii AB167R; settings: AB167 lpxC::ISAba1, LPS deficient, MHB-II, 37°C, ~5×10^5 CFU/ml, triplicate
[8] = tested on: Acinetobacter baumannii AB176R; settings: AB176 lpxD::G739T (ΔlpxD), LPS deficient, MHB-II, 37°C, ~5×10^5 CFU/ml, triplicate
E. coli ESBL20150072 = assay: In vivo sepsis/peritonitis mouse infection model; settings: NMRI mice infected IP
Method: Outbred female NMRI mice (NMRI; weight 26–30 g; Taconic, Denmark) were used throughout the study, as previously described ([69], [70]). […] Colistin is recommended at a dose of 5-10 mg/kg, according to the European Medicines Agency (EMA) ([71]). The animals were kept in Macrolon type III cages in groups of six and allowed free access to feed and water. Experiments were initiated after an acclimatization period of 7 days. Inoculation (bacterial infection) was performed by intraperitoneal (IP) injection of 0.5 ml bacterial suspension containing 2×10^7 CFU/ml and 5% (wt/vol) mucin (Sigma-Aldrich). During experiments, groups of eight mice per cage constituting one experimental unit were randomly assigned to treatment (5 mg/kg ChIP and 10 mg/kg ChIP or colistin 10 mg/kg and 24 mg/kg) or no treatment (vehicle). Peptide and colistin was administered as a single bolus injection IP (volume injected 0.2 ml) at 1 hours and again 3. At various times post-infection, ∼200 µL blood from the jaw/cheek was collected in Eppendorf tubes with anti-coagulate (Sarstedt, Nümbrecht, Germany). Peritoneal lavage was performed by injecting 2.0 ml of sterile physiological saline IP. After 1 minute of abdominal massage, the peritoneum was opened and peritoneal lavage fluid (PLF) withdrawn. PLF was immediately placed in an insulated 4 °C cooling box for transportation and kept on ice at 4 °C. The mouse peritonitis model was repeated in duplicates for E. coli ATCC 25922 and A. baumannii ATCC 19606 nad in triplicate for E. coli ESBL20150072, while only a single experiment was carried out on A. baumannii CR17. Animals were sacrificed at various times prior to and following infection. Data from repeated experiments were pooled for analyses. Quantification of bacterial load was performed by spot plating of blood and peritoneal fluid samples from the mice. Dilution series were made in sterile 0.9% NaCl solution, from which 20 μl was spotted on solid lactose agar plates (Bromthymole Blue plates, SSI Diagnostica). Bacterial counts were recorded after overnight incubation at 37 °C in ambient air. The detection limit was 50 CFU/ml. The clinical condition of the mice was determined using a self-developed clinical score. For this score, mouse behavior and appearance were observed and evaluated for the parameters piloerection, attitude, locomotion, breathing and curiosity and awarded a score from 0 to 5 by a blinded observer. 0 = no clinical signs, 1 = slightly ruffled fur, 2 = ruffled fur and strenuous breathing, 3 = 2 plus lethargy, 4 = 3 plus hunched posture and decreased activity, and 5 = moribund. No significant difference in the clinical score between groups was observed 2 and 4 h post treatment. All mice were recorded for score 2.

A. baumannii ATCC 19606 = assay: In vivo sepsis/peritonitis mouse infection model; settings: NMRI mice infected IP, 10 mg/kg IP at 1 and 3 h
Eschericia coli ST131 = settings: ST131, ESBL CTX-M-15; MHB-II, 37°C, ~5×10^5 CFU/ml, triplicate
[9] = tested on: Eschericia coli ATCC 25922; assay type: cell-based
Eschericia coli ML-35p = settings: LacI- LacY- LacZ+, MHB-II, 37°C, ~5×10^5 CFU/ml, triplicate
[10] = tested on: Acinetobacter baumannii CS01
[11] = tested on: Klebsiella pneumoniae ST512; settings: ST512, KPC-3, ΔmgrB, L-Ara4N modified, mucoid; MHB-II, 37°C, ~5×10^5 CFU/ml, triplicate
[12] = tested on: Acinetobacter baumannii AB176
[13] = tested on: Acinetobacter baumannii ATCC 19606; settings: ATCC 19606
[14] = tested on: Acinetobacter baumannii RC64; settings: RC64, ATCC 19606 pmrB::R134C pmrB::A227V; MHB-II, 37°C, ~5×10^5 CFU/ml, triplicate
E. coli ATCC 25922 [15] = assay: Time kill experiments; assay type: cell-based; settings: detection limit 50 CFU
[16] = tested on: Klebsiella pneumoniae ATCC 13883; settings: ATCC 13883
[17] = tested on: Klebsiella pneumoniae ATCC 700603; settings: ATCC 700603, SHV-18, mucoid; MHB-II, 37°C, ~5×10^5 CFU/ml, triplicate
[18] = tested on: Pseudomonas aeruginosa ATCC 27853
[19] = tested on: Pseudomonas aeruginosa SNRC (PAO1 background); settings: colistin resistance evolved laboratory isolate, MHB-II, 37°C, ~5×10^5 CFU/ml, triplicate

`CC[C@H](C)CCCCC(=O)N[C@@H](CCN)C(=O)N[C@H](C(=O)N[C@@H](CCN)C(=O)N[C@H]1CCNC(=O)[C@H]([C@@H](C)O)NC(=O)[C@H](CCN)NC(=O)[C@H](CCN)NC(=O)[C@H](CC(C)C)NC(=O)[C@@H](CC(C)C)NC(=O)[C@H](CCN)NC1=O)[C@@H](C)O` [Colistin, colistin] (HELM PEPTIDE1{[CC[C@H](C)CCCCC(=O)[*:2]].[Dab].T.[Dab].[Dab].[Dab].[dL].L.[Dab].[Dab].T}$PEPTIDE1,PEPTIDE1,5:R3-11:R2$$$V2.0; N-terminus assumed; bridges inferred) was tested, and the MIC (Eschericia coli AMA 817) was 0.125 µg/mL (≈ 0.107 µM), the MIC [1] was greater than 256 µg/mL and the MIC [2] was greater than 256 µg/mL. For the same molecule, the MIC [3] was 0.5 µg/mL (≈ 0.428 µM), the MIC [4] was 0.5 µg/mL (≈ 0.428 µM) and the MIC [5] was 0.5 µg/mL (≈ 0.428 µM). For the same molecule, the “peritoneal bacterial titers compared with ChIP 5 mg/kg (2 logs reduction, 1-5×10^5 CFU/ml)” value (E. coli ATCC 25922 [6]) was “similar”, the MIC [7] was greater than 256 µg/mL and the MIC [8] was greater than 256 µg/mL. The “effect on peritoneal titers” value (E. coli ESBL20150072; 24 mg/kg IP at 1 and 3 h, mcr-1 genotype) was “no effect”, the “bacterial blood stream titers” value (E. coli ESBL20150072; colistin 24 mg/kg, similar to vehicle control) was ~1×10^6 CFU/ml and the “reduction of peritoneal bacterial titers relative to saline control” value (A. baumannii ATCC 19606; after 5 hours) was 3-4 log. For the same molecule, the peritoneal bacterial titers (A. baumannii ATCC 19606; after 5 hours, saline control around 1×10^8 CFU/ml) was 1×10^3-1×10^4 CFU/ml, the bacterial blood titers (A. baumannii ATCC 19606; detection limit 50 CFU/ml) was “reduce CFU/ml to the detection limit” and the MIC (Eschericia coli MG1655) was 0.25 µg/mL (≈ 0.214 µM). The MIC (Eschericia coli ST131) was 1 µg/mL (≈ 0.855 µM), the MIC [9] was 0.125-0.25* μg/ml and the MIC (Eschericia coli ML-35p) was 0.25 µg/mL (≈ 0.214 µM). The MIC (P. aeruginosa B3-CFI) was greater than 256 µg/mL, the MIC [10] was 0.5 µg/mL (≈ 0.428 µM) and the MIC [11] was 128 µg/mL (≈ 109 µM). For the same molecule, the MIC [12] was 0.5 µg/mL (≈ 0.428 µM), the MIC [13] was 0.5 µg/mL (≈ 0.428 µM) and the MIC [14] was 64 µg/mL (≈ 54.7 µM). The “cell viability after treatment” value (E. coli ATCC 25922 [15]; 1xMIC) was “reduction in CFU to the detection limit”, the “cell viability after treatment” value (E. coli ATCC 25922 [15]; 3xMIC, over the first 5 hours) was “reduction in CFU to the detection limit” and the MIC [16] was 0.5 µg/mL (≈ 0.428 µM). The MIC [17] was 2 µg/mL (≈ 1.71 µM), the MIC [18] was 1 µg/mL (≈ 0.855 µM) and the MIC [19] was greater than 256 µg/mL.
